According to US10744128B2, “6-(5-membered heteroaryl)isoquinolin-3-yl-(5-membered heteroaryl) carboxamides and preparation and use thereof” (Samumed, LLC, priority 2017, dated 2020):
Like-named read-outs stand apart in the source and are kept apart here.

Assays:
[1] = test system: SW480 colon carcinoma cells; assay: Cell viability assay (CellTiter-Glo) in SW480 cells; type: cell-based, human; details: four days
Method: SW480 colon carcinoma cells were transduced with a lentiviral vector expressing luciferase with a human Sp5 promoter consisting of a sequence of eight TCF/LEF binding sites. SW480 cells stably expressing the Sp5-Luc reporter gene and a hygromycin resistance gene were selected by treatment with 150 µg/mL of hygromycin for 7 days. These stably transduced SW480 cells were expanded in cell culture and used for all further screening activities.
For the Cell Viability Assays, the cells were plated at 2,000 cells/well in 384-well plates with a DMEM medium containing 1% fetal bovine serum, and 1% Penicillin-Streptomycin and incubated for […] at 37° C. and 5% CO2. Eight replicates of DMSO-treated cells served as controls and cells treated with compound were performed in duplicate.
After incubation, 10 μL of CellTiter-Glo (Promega) was added to each well allowed to incubate for approximately 12 minutes. This reagent “results in cell lysis and generation of a luminescent signal proportional to the amount of ATP present. The amount of ATP is directly proportional to the number of cells present in culture, in agreement with previous reports. The CellTiter-Glo® Assay generates a “glow-type” luminescent signal, produced by the luciferase reaction (Promega.com)”.

IL-6 = IL-6 inhibition in LPS-stimulated human peripheral blood mononuclear cells (HTRF); type: cell-based; details: for EC50: huPBMCs, LPS 50 ng/mL, 22 hours, IL-6 HTRF; for inhibition at 10 µM: read-out: percent inhibition at 10 μM
Method: Fresh Normal PB MNC (Catalog # PB001, AllCells, Alameda, Calif.) were shipped overnight at 4° C. and resuspended in Roswell Park Memorial Institute (RPMI) 1640 Medium, with GlutaMAX Supplement (Catalog #61870127, ThermoFisher Scientific, Waltham, Mass.) supplemented with 1% Penicillin-Streptomycin (Catalog #15140163, ThermoFisher Scientific, Waltham, Mass.) and 1% fetal bovine serum (FBS) (Catalog #16140089, ThermoFisher Scientific, Waltham, Mass.) assay media.
Fresh normal human peripheral blood mononuclear cells (huPBMCs) were resuspended in 1% FBS-RPMI assay media with 1% Penicillin-Streptomycin 1% to a cell concentration of 1×10e6 cells/mL. […] 50 ng/mL of Lipopolysaccharides from Escherichia coli 0111:B4 (Catalog #L5293-2ML, Sigma-Aldrich, St. Louis, Mo.) was added after 2 hours and cells were incubated for another 22 hours at 37° C.-5% CO2. After 22 hour incubation, a mixture of anti-IL6 XL665 and anti-IL-6 Cryptate diluted in reconstitution buffer (Catalog #62IL6PEC, Cisbio Inc., Bedford, Mass.) was added to each well. Following incubation for 3 hours at room temperature, Homogeneous Time-Resolved Fluorescence (HTRF) was measured using the Envision (Perkin Elmer, Shelton, Conn.) at 665 nm and […]. The ratio of fluorescence at 665 nm to 620 nm was used as a readout for IL-6 quantification. All samples were processed in duplicate. Readings were normalized to DMSO treated cells and normalized activities were utilized for EC50 calculations. EC50 was determined using software generated by Dotmatics Limited (Windhill Bishops Stortford Herts, UK) using the Levenberg-Marquardt 4 parameter fitting procedure with finite different gradients.

[2] = test system: Wnt-responsive promoter (Sp5-Luc reporter) in SW480 colon carcinoma cells; assay: Sp5-Luc reporter gene screening assay for Wnt activity in SW480 cells; type: cell-based, human; details: 36 to 48 hours, luminescence
Text: The screening assay for Wnt activity is described as follows. Reporter cell lines can be generated by stably transducing cancer cell lines (e.g., colon cancer) or primary cells (e.g., IEC-6 intestinal cells) with a lentiviral construct that includes a Wnt-responsive promoter driving expression of the firefly luciferase gene.
SW480 colon carcinoma cells were transduced with a lentiviral vector expressing luciferase with a human Sp5 promoter consisting of a sequence of eight TCF/LEF binding sites. SW480 cells stably expressing the Sp5-Luc reporter gene and a hygromycin resistance gene were selected by treatment with 150 μg/mL of hygromycin for 7 days. These stably transduced SW480 cells were expanded in cell culture and used for all further screening activities. […] For Sp5-Luc reporter gene assays, the cells were plated at 4,000 cells/well in 384-well plates with a DMEM medium containing 1% fetal bovine serum, and 1% Penicillin-Streptomycin and incubated for 36 to 48 hours at 37° C. and 5% CO2. Following incubation, 15 μl of BriteLite Plus luminescence reagent (Perkin Elmer) was added to each well of the 384-well assay plates. The plates were placed on an orbital shaker for 2 min and then luminescence was quantified using the Envision (Perkin Elmer) plate reader. Readings were normalized to DMSO only treated cells, and normalized activities were utilized for EC50 calculations using the dose-response log (inhibitor) vs. response −variable slope (four parameters) nonlinear regression feature available in GraphPad Prism 5.0 (or Dotmatics).

recombinant GSK3β kinase = recombinant GSK3β kinase (Homo sapiens (Human), UniProt P49841); assay: GSK3β kinase assay (Ser/Thr 09 peptide Z-lyte, FRET); type: biochemical
Chain of recombinant GSK3β kinase (P49841 whole entry): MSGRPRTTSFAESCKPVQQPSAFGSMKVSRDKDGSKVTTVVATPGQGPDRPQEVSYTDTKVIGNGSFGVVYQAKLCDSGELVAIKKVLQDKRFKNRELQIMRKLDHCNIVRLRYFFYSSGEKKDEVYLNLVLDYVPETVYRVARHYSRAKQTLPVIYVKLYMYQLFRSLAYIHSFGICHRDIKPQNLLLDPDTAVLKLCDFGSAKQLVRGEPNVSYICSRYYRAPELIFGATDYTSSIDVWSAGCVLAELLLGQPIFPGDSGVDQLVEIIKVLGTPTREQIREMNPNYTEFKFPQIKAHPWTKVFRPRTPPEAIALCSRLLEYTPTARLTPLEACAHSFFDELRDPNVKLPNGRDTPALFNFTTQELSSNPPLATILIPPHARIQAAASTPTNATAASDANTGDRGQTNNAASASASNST

[3] = target: recombinant DYRK1A kinase (Homo sapiens (Human), UniProt Q13627); assay: DYRK1A kinase assay (Ser/Thr 18 peptide Z-lyte, FRET)
Method: Each compound was dissolved in DMSO as a 10 mM stock and used to prepare compound source plates.
This is a non-radioactive assay using fluorescence resonance energy transfer (FRET) between coumarin and fluorescein to detect kinase activity which is represented as a ratio of coumarin emission/fluorescein emission.
The mixture was allowed to incubate with the representative compounds for one hour at room temperature. All reactions were performed in duplicate. Unphosphorylated (“0% Control”) and phosphorylated (“100% control”) forms of Ser/Thr 18 served as control reactions. Additionally, an 11-point dose-response curve of Staurosporine (1 uM top) was run to serve as a positive compound control.
After incubation, Development Reagent A was diluted in Development Buffer then added to the reaction and allowed to further incubate for one hour at room temperature.
Dose-response curves were generated and inhibitory concentration (IC50) values were calculated using non-linear regression curve fit in the Dotmatics' Studies Software (Bishops Stortford, UK).

[4] = test system: primary human fibroblasts derived from IPF patients (LL29 cells), α-smooth muscle actin; assay: Inhibition of fibrotic process: αSMA in TGF-β1 treated LL29 fibroblasts; type: cell-based; details: for EC50: LL29 cells, TGF-β1 20 ng/mL, 4 days, % cells positive for αSMA
Method: Representative compounds were screened using primary human fibroblasts (derived from IPF patients) treated with TGF-β1 to determine their ability to inhibit the fibrotic process.
LL29 cells were plated at 1,500 cells/well in 70 μL/well F12 medium supplemented with 1% Fetal Bovine Serum. […] Wells treated with TGF-β1 and containing DMSO were used as positive control, and cells with only DMSO were negative control. […] Following incubation for 4 days, SYTOX green nucleic acid stain (Life Technologies [Thermo Fisher Scientific]) was added to the wells at a final concentration of 1 μM and incubated at room temperature for 30 min.

[5] = GSK3β kinase, 46 μM ATP, one hour, method calls values IC50
[6] = DYRK1A kinase, 30 μM ATP, one hour, method calls values IC50

Compound	EC50 ([1]; Homo sapiens, 96 h) [nM]	EC50 (IL-6; Homo sapiens, PBMC) [nM]	EC50 ([2]; Homo sapiens) [nM]	EC50 (recombinant GSK3β kinase; [5]) [nM]	EC50 [3, 6] [nM]	EC50 (recombinant GSK3β kinase) [nM]	EC50 [3] [nM]	EC50 [1] [nM]	EC50 (IL-6) [nM]	EC50 [2] [nM]	EC50 ([4]; Homo sapiens, Fibroblast, 96 h) [nM]	inhibition at 10 µM (IL-6; Homo sapiens, PBMC) [%]	inhibition at 10 µM ([4]; Homo sapiens, Fibroblast, read-out: percent inhibition at 10 μM) [%]	EC50 [4] [nM]
CCN1CCC(n2cc(C(=O)Nc3cc4cc(-c5cn(C)nn5)ccc4cn3)cn2)CC1 [Compound 31, 1-(1-Ethylpiperidin-4-yl)-N-(6-(1-methyl-1H-1,2,3-triazol-4-yl)isoquinolin-3-yl)-1H-pyrazole-4-carboxamide]	39	688	21	286	3	–	–	–	–	–	298	–	–	–
[2H]c1nc(NC(=O)c2cnn(C(C)C)c2)cc2cc(-c3cncn3C)ccc12 [Compound 43, 1-Isopropyl-N-(6-(1-methyl-1H-imidazol-5-yl)isoquinolin-3-yl-1-d)-1H-pyrazole-4-carboxamide]	83	251	48	–	–	3070	2	–	–	–	151	–	–	–
Cn1cnc(C(=O)Nc2cc3cc(-c4cncn4C)ccc3cn2)c1 [Compound 48, 1-Methyl-N-(6-(1-methyl-1H-imidazol-5-yl)isoquinolin-3-yl)-1H-imidazole-4-carboxamide]	3550	> 10000	1160	3380	18	–	–	–	–	–	> 10000	17.8	6.7	–
2-(1-Isopropylpiperidin-4-yl)-N-(6-(1-methyl-1H-pyrazol-4-yl)isoquinolin-3-yl)thiazole-4-carboxamide [Compound 39]	–	–	–	3710	26	–	–	1190	7590	70	–	–	–	3040
Cc1nc(C(=O)Nc2cc3cc(-c4cncn4C)ccc3cn2)co1 [Compound 53, 2-Methyl-N-(6-(1-methyl-1H-imidazol-5-yl)isoquinolin-3-yl)oxazole-4-carboxamide]	3200	> 10000	1890	821	14	–	–	–	–	–	2420	47.5	–	–
Cn1cncc1-c1ccc2cnc(NC(=O)c3cn(C4CCOCC4)cn3)cc2c1 [Compound 50, N-(6-(1-Methyl-1H-imidazol-5-yl)isoquinolin-3-yl)-1-(tetrahydro-2H-pyran-4-yl)-1H-imidazole-4-carboxamide]	833	3280	100	4490	21	–	–	–	–	–	1180	–	–	–
CN1CCC(n2cc(C(=O)Nc3cc4cc(-c5cn(C)nn5)ccc4cn3)cn2)CC1 [Compound 30, N-(6-(1-Methyl-1H-1,2,3-triazol-4-yl)isoquinolin-3-yl)-1-(1-methylpiperidin-4-yl)-1H-pyrazole-4-carboxamide]	32	261	14	322	3	–	–	–	–	–	83	–	–	–
Cc1ncc(-c2ccc3cnc(NC(=O)c4cnn(C(C)C)c4)cc3c2)n1C [Compound 61, N-(6-(1,2-Dimethyl-1H-imidazol-5-yl)isoquinolin-3-yl)-1-isopropyl-1H-pyrazole-4-carboxamide]	111	566	63	6790	5	–	–	–	–	–	318	–	–	–
CN1CCC(n2cc(C(=O)Nc3cc4cc(-c5cnn(C)c5)ccc4cn3)cn2)CC1 [Compound 4, N-(6-(1-Methyl-1H-pyrazol-4-yl)isoquinolin-3-yl)-1-(1-methylpiperidin-4-yl)-1H-pyrazole-4-carboxamide]	35	89	14	1480	2	–	–	–	–	–	94	–	–	–

The next lines start with results.

EC50 ([1]; Homo sapiens, 96 h) [nM]	EC50 (IL-6; Homo sapiens, PBMC) [nM]	EC50 ([2]; Homo sapiens) [nM]	EC50 (recombinant GSK3β kinase; [5]) [nM]	EC50 [3, 6] [nM]	EC50 (recombinant GSK3β kinase) [nM]	EC50 [3] [nM]	EC50 [1] [nM]	EC50 (IL-6) [nM]	EC50 [2] [nM]	Compound	EC50 ([4]; Homo sapiens, Fibroblast, 96 h) [nM]	inhibition at 10 µM (IL-6; Homo sapiens, PBMC) [%]	inhibition at 10 µM ([4]; Homo sapiens, Fibroblast, read-out: percent inhibition at 10 μM) [%]	EC50 [4] [nM]
782	> 10000	180	2590	16	–	–	–	–	–	CC(C)N1CCC(c2nc(C(=O)Nc3cc4cc(-c5cnn(C)c5)ccc4cn3)co2)CC1 [Compound 22, 2-(1-Isopropylpiperidin-4-yl)-N-(6-(1-methyl-1H-pyrazol-4-yl)isoquinolin-3-yl)oxazole-4-carboxamide]	2910	27.8	–	–
–	–	–	9520	8	–	–	146	754	103	N-(6-(1-Methyl-1H-pyrazol-4-yl)isoquinolin-3-yl)-2-(4-methylpiperazin-1-yl)oxazole-5-carboxamide [Compound 15]	–	–	–	279
257	852	71	316	7	–	–	–	–	–	Cn1cc(-c2ccc3cnc(NC(=O)c4cn(C5CCNCC5)nn4)cc3c2)nn1 [Compound 33, N-(6-(1-Methyl-1H-1,2,3-triazol-4-yl)isoquinolin-3-yl)-1-(piperidin-4-yl)-1H-1,2,3-triazole-4-carboxamide]	562	–	–	–
102	618	37	850	2	–	–	–	–	–	CCn1cc(C(=O)Nc2cc3cc(-c4cncn4C)ccc3cn2)cn1 [Compound 41, 1-Ethyl-N-(6-(1-methyl-1H-imidazol-5-yl)isoquinolin-3-yl)-1H-pyrazole-4-carboxamide]	122	–	–	–
470	3750	105	3630	9	–	–	–	–	–	CN1CCC(n2cc(C(=O)Nc3cc4cc(-c5cnn(C)c5)ccc4cn3)nn2)CC1 [Compound 12, N-(6-(1-Methyl-1H-pyrazol-4-yl)isoquinolin-3-yl)-1-(1-methylpiperidin-4-yl)-1H-1,2,3-triazole-4-carboxamide]	983	–	–	–
608	3440	387	9990	39	–	–	–	–	–	CC(C)n1cc(C(=O)Nc2cc3cc(-c4cnn(C5CCN(C)CC5)c4)ccc3cn2)cn1 [Compound 1, 1-Isopropyl-N-(6-(1-(1-methylpiperidin-4-yl)-1H-pyrazol-4-yl)isoquinolin-3-yl)-1H-pyrazole-4-carboxamide]	953	–	–	–
